The text below walks through data of patent publication US20250163104A1, “MACROCYCLIC IMMUNOMODULATORS” (priority 2021, published 2025).

SMILES strings stand for the structures. Where a SMILES comes first, the peptide text is derived from it. Bridges are numbered along the chain shown (N, C = ends). [ ]: non-standard residue; d: D form. The star is where a group is joined. Tyr(3,5-F2) = N[C@@H](Cc1cc(F)c(O)c(F)c1)C(=O)O; Tyr(3-Cl) = N[C@@H](Cc1ccc(O)c(Cl)c1)C(=O)O; Bip = N[C@@H](Cc1ccc(-c2ccccc2)cc1)C(=O)O; Phe(3-Me) = Cc1cccc(C[C@H](N)C(=O)O)c1; mTyr = N[C@@H](Cc1cccc(O)c1)C(=O)O; 3Pal = N[C@@H](Cc1cccnc1)C(=O)O; Cha = N[C@@H](CC1CCCCC1)C(=O)O; dDab = NCC[C@@H](N)C(=O)O; Carboxymethyl = O=C(O)C*; Orn = NCCC[C@H](N)C(=O)O; Dab = NCC[C@H](N)C(=O)O; Dap = NC[C@H](N)C(=O)O; Ac3c = NC1(C(=O)O)CC1; Piv = CC(C)(C)C(=O)*

For this experiment, the target named is T1, human PD-1 / PD-L1-Ig binding on Jurkat cell line over-expressing human PD-1 (Jurkat-PD-1) (Homo sapiens, UniProt Q15116).
T1 construct: expressed in transfected cells; host or cells: Jurkat
T1 sequence (Q15116 25-288): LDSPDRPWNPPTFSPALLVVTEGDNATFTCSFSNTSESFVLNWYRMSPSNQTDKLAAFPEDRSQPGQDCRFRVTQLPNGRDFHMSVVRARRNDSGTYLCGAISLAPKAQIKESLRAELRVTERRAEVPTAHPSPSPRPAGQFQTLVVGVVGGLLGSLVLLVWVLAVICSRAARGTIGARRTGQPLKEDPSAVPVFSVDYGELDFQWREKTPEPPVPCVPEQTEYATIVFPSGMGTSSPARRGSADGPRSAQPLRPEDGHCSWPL
Kind of experiment: Jurkat-PD-1 Cell Binding High-Content Screening Assay (CBA). Type of experiment: cell-based. Conditions: Jurkat-PD-1 cells, PE-labeled PD-L1-Ig 20 nM final; read-out: Jurkat HPD1_PDL1 IC50. The essentials:
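Cell-bound PE-labeled PD-L1-Ig (20 nM final, 1 h) measured by high-content imaging after fixation and Hoechst 33342 counterstain. Compound was applied first for 2 h at 37° C. to Jurkat cells over-expressing human PD-1 in DMEM with 10% FCS.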
Take `CC(C)C[C@H]1NC(=O)[C@H](CCCN)NC(=O)[C@H](C(C)C)NC(=O)[C@H](Cc2ccc(-c3ccccc3)cc2)NC(=O)[C@H](C(C)C)NC(=O)[C@H](Cc2cc(F)c(O)c(F)c2)NC(=O)[C@H](CC(=O)O)NC(=O)[C@H](Cc2ccc(OCC(=O)O)cc2)NC(=O)[C@H](CN)NC(=O)CSC[C@@H](C(=O)N[C@@H](CCN)C(N)=O)NC(=O)[C@H](CCCCN)NC(=O)[C@H](C(C)C)NC(=O)[C@H](CC2CCCCC2)NC(=O)[C@H](CCN)NC1=O` [Compound 2034] ({CH2CO}-[Dap]Y(Carboxymethyl)D[Tyr(3,5-F2)]V[Bip]V[Orn][dL][Dab][Cha]VKC[Dab]-NH2; thioether N-14): the IC50 amounted to 84.1 nM.
On to `CC(C)C[C@H]1NC(=O)[C@H](CCCN)NC(=O)[C@H](C(C)C)NC(=O)[C@H](Cc2ccc(-c3ccccc3)cc2)NC(=O)[C@H](C(C)C)NC(=O)[C@H](Cc2ccc(O)c(Cl)c2)NC(=O)[C@H](CC(=O)O)NC(=O)[C@H](Cc2ccc(OCC(=O)O)cc2)NC(=O)[C@H](CN)NC(=O)CSC[C@@H](C(=O)N[C@@H](CCN)C(N)=O)NC(=O)[C@H](CCCCN)NC(=O)[C@H](C(C)C)NC(=O)[C@H](CC2CCCCC2)NC(=O)[C@H](CCN)NC1=O` [Compound 2035] ({CH2CO}-[Dap]Y(Carboxymethyl)D[Tyr(3-Cl)]V[Bip]V[Orn][dL][Dab][Cha]VKC[Dab]-NH2; thioether N-14), for which the IC50 was found to be 15 nM.
The same measure for `Cc1cccc(C[C@@H]2NC(=O)[C@H](CC(=O)O)NC(=O)[C@H](Cc3ccc(OCC(=O)O)cc3)NC(=O)[C@H](CN)NC(=O)CSC[C@@H](C(=O)N[C@@H](CCN)C(N)=O)NC(=O)[C@H](CCCN)NC(=O)[C@H](C(C)C)NC(=O)[C@H](CC3CCCCC3)NC(=O)[C@H](CCNC(=O)C(C)(C)C)NC(=O)[C@@H](CC(C)C)NC(=O)[C@H](CCCN)NC(=O)[C@H](Cc3ccc(O)cc3)NC(=O)[C@H](Cc3ccc(-c4ccccc4)cc3)NC(=O)[C@H](Cc3ccc(O)cc3)NC2=O)c1` [Compound 2036] ({CH2CO}-[Dap]Y(Carboxymethyl)D[Phe(3-Me)]Y[Bip]Y[Orn][dL][Dab](Piv)[Cha]V[Orn]C[Dab]-NH2; thioether N-14): 10 nM.
The same measure for `Cc1cccc(C[C@@H]2NC(=O)[C@H](CC(=O)O)NC(=O)[C@H](Cc3ccc(OCC(=O)O)cc3)NC(=O)[C@H](CN)NC(=O)CSC[C@@H](C(=O)N[C@@H](CCN)C(N)=O)NC(=O)[C@H](CCCN)NC(=O)[C@H](C(C)C)NC(=O)[C@H](CC3CCCCC3)NC(=O)[C@H](Cc3cccnc3)NC(=O)[C@@H](CC(C)C)NC(=O)[C@H](CCCN)NC(=O)[C@H](Cc3ccc(O)cc3)NC(=O)[C@H](Cc3ccc(-c4ccccc4)cc3)NC(=O)[C@H](Cc3ccc(O)cc3)NC2=O)c1` [Compound 2037] ({CH2CO}-[Dap]Y(Carboxymethyl)D[Phe(3-Me)]Y[Bip]Y[Orn][dL][3Pal][Cha]V[Orn]C[Dab]-NH2; thioether N-14): 89.7 nM; for `Cc1cccc(C[C@@H]2NC(=O)[C@H](CC(=O)O)NC(=O)[C@H](Cc3ccc(OCC(=O)O)cc3)NC(=O)[C@H](CN)NC(=O)CSC[C@@H](C(=O)N[C@@H](CCN)C(N)=O)NC(=O)[C@H](CCCN)NC(=O)[C@H](C(C)C)NC(=O)[C@H](CC3CCCCC3)NC(=O)[C@H](CCN)NC(=O)[C@@H](CC(C)C)NC(=O)[C@H](CCNC(=O)C(C)(C)C)NC(=O)[C@H](Cc3ccc(O)cc3)NC(=O)[C@H](Cc3ccc(-c4ccccc4)cc3)NC(=O)[C@H](Cc3ccc(O)cc3)NC2=O)c1` [Compound 2038] ({CH2CO}-[Dap]Y(Carboxymethyl)D[Phe(3-Me)]Y[Bip]Y[Dab](Piv)[dL][Dab][Cha]V[Orn]C[Dab]-NH2; thioether N-14): 19.4 nM.
With `Cc1cccc(C[C@@H]2NC(=O)[C@H](CC(=O)O)NC(=O)[C@H](Cc3ccc(OCC(=O)O)cc3)NC(=O)[C@H](CN)NC(=O)CSC[C@@H](C(=O)N[C@@H](CCN)C(N)=O)NC(=O)[C@H](CCCN)NC(=O)[C@H](C(C)C)NC(=O)[C@H](CC3CCCCC3)NC(=O)[C@H](CCN)NC(=O)[C@@H](CC(C)C)NC(=O)[C@@H](CCN)NC(=O)[C@H](Cc3ccc(O)cc3)NC(=O)[C@H](Cc3ccc(-c4ccccc4)cc3)NC(=O)[C@H](Cc3ccc(O)cc3)NC2=O)c1` [Compound 2039] ({CH2CO}-[Dap]Y(Carboxymethyl)D[Phe(3-Me)]Y[Bip]Y[dDab][dL][Dab][Cha]V[Orn]C[Dab]-NH2; thioether N-14), the IC50 was found to be 12.9 nM.
The same measure for `Cc1cccc(C[C@@H]2NC(=O)[C@H](CC(=O)O)NC(=O)[C@H](Cc3ccc(OCC(=O)O)cc3)NC(=O)[C@H](CCNC(=O)C(C)(C)C)NC(=O)CSC[C@@H](C(=O)N[C@@H](CCN)C(N)=O)NC(=O)[C@H](CCCN)NC(=O)[C@H](C(C)C)NC(=O)[C@H](CC3CCCCC3)NC(=O)[C@H](CCN)NC(=O)[C@@H](CC(C)C)NC(=O)[C@H](CCCN)NC(=O)[C@H](Cc3ccc(O)cc3)NC(=O)[C@H](Cc3ccc(-c4ccccc4)cc3)NC(=O)[C@H](Cc3ccc(O)cc3)NC2=O)c1` [Compound 2040] ({CH2CO}-[Dab](Piv)Y(Carboxymethyl)D[Phe(3-Me)]Y[Bip]Y[Orn][dL][Dab][Cha]V[Orn]C[Dab]-NH2; thioether N-14): 4.9 nM; for `Cc1cccc(C[C@@H]2NC(=O)[C@H](CC(=O)O)NC(=O)[C@H](Cc3ccc(OCC(=O)O)cc3)NC(=O)[C@H](Cc3cccnc3)NC(=O)CSC[C@@H](C(=O)N[C@@H](CCN)C(N)=O)NC(=O)[C@H](CCCN)NC(=O)[C@H](C(C)C)NC(=O)[C@H](CC3CCCCC3)NC(=O)[C@H](CCN)NC(=O)[C@@H](CC(C)C)NC(=O)[C@H](CCCN)NC(=O)[C@H](Cc3ccc(O)cc3)NC(=O)[C@H](Cc3ccc(-c4ccccc4)cc3)NC(=O)[C@H](Cc3ccc(O)cc3)NC2=O)c1` [Compound 2041] ({CH2CO}-[3Pal]Y(Carboxymethyl)D[Phe(3-Me)]Y[Bip]Y[Orn][dL][Dab][Cha]V[Orn]C[Dab]-NH2; thioether N-14): 4.9 nM.
Consider `Cc1cccc(C[C@@H]2NC(=O)[C@H](CC(=O)O)NC(=O)[C@H](Cc3ccc(OCC(=O)O)cc3)NC(=O)[C@H](CN)NC(=O)CSC[C@@H](C(=O)N[C@@H](CCNC(=O)C(C)(C)C)C(N)=O)NC(=O)[C@H](CCCN)NC(=O)[C@H](C(C)C)NC(=O)[C@H](CC3CCCCC3)NC(=O)[C@H](CCN)NC(=O)[C@@H](CC(C)C)NC(=O)[C@H](CCCN)NC(=O)[C@H](Cc3ccc(O)cc3)NC(=O)[C@H](Cc3ccc(-c4ccccc4)cc3)NC(=O)[C@H](Cc3ccc(O)cc3)NC2=O)c1` [Compound 2042] ({CH2CO}-[Dap]Y(Carboxymethyl)D[Phe(3-Me)]Y[Bip]Y[Orn][dL][Dab][Cha]V[Orn]C[Dab](Piv)-NH2; thioether N-14), for which the IC50 was determined as 6.5 nM.
The result for `Cc1cccc(C[C@@H]2NC(=O)[C@H](CC(=O)O)NC(=O)[C@H](Cc3ccc(OCC(=O)O)cc3)NC(=O)[C@H](CN)NC(=O)CSC[C@@H](C(=O)NC3(C(N)=O)CC3)NC(=O)[C@H](CCCN)NC(=O)[C@H](C(C)C)NC(=O)[C@H](CC3CCCCC3)NC(=O)[C@H](CCN)NC(=O)[C@@H](CC(C)C)NC(=O)[C@H](CCCN)NC(=O)[C@H](Cc3ccc(O)cc3)NC(=O)[C@H](Cc3ccc(-c4ccccc4)cc3)NC(=O)[C@H](Cc3ccc(O)cc3)NC2=O)c1` [Compound 2043] ({CH2CO}-[Dap]Y(Carboxymethyl)D[Phe(3-Me)]Y[Bip]Y[Orn][dL][Dab][Cha]V[Orn]C[Ac3c]-NH2; thioether N-14) reads 16.8 nM.
Take `Cc1cccc(C[C@@H]2NC(=O)[C@H](CC(=O)O)NC(=O)[C@H](Cc3ccc(OCC(=O)O)cc3)NC(=O)[C@H](CN)NC(=O)CSC[C@@H](C(=O)N[C@@H](CCN)C(N)=O)NC(=O)[C@H](CCNC(=O)C(C)(C)C)NC(=O)[C@H](C(C)C)NC(=O)[C@H](CC3CCCCC3)NC(=O)[C@H](CCN)NC(=O)[C@@H](CC(C)C)NC(=O)[C@H](CCCN)NC(=O)[C@H](Cc3ccc(O)cc3)NC(=O)[C@H](Cc3ccc(-c4ccccc4)cc3)NC(=O)[C@H](Cc3ccc(O)cc3)NC2=O)c1` [Compound 2044] ({CH2CO}-[Dap]Y(Carboxymethyl)D[Phe(3-Me)]Y[Bip]Y[Orn][dL][Dab][Cha]V[Dab](Piv)C[Dab]-NH2; thioether N-14): the IC50 came to 9.7 nM.
The result for `Cc1cccc(C[C@@H]2NC(=O)[C@H](CC(=O)O)NC(=O)[C@H](Cc3ccc(OCC(=O)O)cc3)NC(=O)[C@H](CN)NC(=O)CSC[C@@H](C(=O)N[C@@H](CCN)C(N)=O)NC(=O)[C@@H](CCN)NC(=O)[C@H](C(C)C)NC(=O)[C@H](CC3CCCCC3)NC(=O)[C@H](CCN)NC(=O)[C@@H](CC(C)C)NC(=O)[C@H](CCCN)NC(=O)[C@H](Cc3ccc(O)cc3)NC(=O)[C@H](Cc3ccc(-c4ccccc4)cc3)NC(=O)[C@H](Cc3ccc(O)cc3)NC2=O)c1` [Compound 2045] ({CH2CO}-[Dap]Y(Carboxymethyl)D[Phe(3-Me)]Y[Bip]Y[Orn][dL][Dab][Cha]V[dDab]C[Dab]-NH2; thioether N-14) reads 10.5 nM.
On to `CCNC(=O)[C@H](CCN)NC(=O)[C@@H]1CSCC(=O)N[C@@H](CN)C(=O)N[C@@H](Cc2ccc(OCC(=O)O)cc2)C(=O)N[C@@H](CC(=O)O)C(=O)N[C@@H](Cc2cccc(O)c2)C(=O)N[C@@H](C(C)C)C(=O)N[C@@H](Cc2ccc(-c3ccccc3)cc2)C(=O)N[C@@H](Cc2ccc(O)cc2)C(=O)N[C@@H](CCCN)C(=O)N[C@H](CC(C)C)C(=O)N[C@@H](CCN)C(=O)N[C@@H](CC2CCCCC2)C(=O)N[C@@H](C(C)C)C(=O)N[C@@H](CCCN)C(=O)N1` [Compound 2046] ({CH2CO}-[Dap]Y(Carboxymethyl)D[mTyr]V[Bip]Y[Orn][dL][Dab][Cha]V[Orn]C[Dab]-NHEt; thioether N-14), for which the IC50 turned out to be 16.7 nM.
